Patent US20250059205A1, “Heterocyclic Compounds and Methods of Use” (AMGEN INC., priority 2021, published 2025)
Like-named read-outs stand apart in the source and are kept apart here.

What was measured:
[1] = test system: Phosphorylation of ERK1/2 in A-427 cells; experiment: Phospho-ERK1/2 MSD Assay (A-427 cells); format: cell-based; settings: Homo sapiens, 2 h treatment, read-out: p-ERK (A427 cells) IC50
In short: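 ERK1/2 phosphorylation measured by Meso Scale whole-cell lysate assay after A-427 cells were exposed to a titration of compound for 2 h at 37 °C.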

[2] = molecular target: GDP-bound KRAS protein (aa 1-169), containing both G12D and C118A amino acid substitutions (Homo sapiens, UniProt P01116, C118A/G12D); experiment: KRAS G12D Coupled Nucleotide Exchange Assay; format: biochemical; settings: 2 h compound pre-incubation
Chain of GDP-bound KRAS protein (aa 1-169), containing both G12D and C118A amino acid substitutions (P01116 1-169 isoform P01116-2 G12D/C118A): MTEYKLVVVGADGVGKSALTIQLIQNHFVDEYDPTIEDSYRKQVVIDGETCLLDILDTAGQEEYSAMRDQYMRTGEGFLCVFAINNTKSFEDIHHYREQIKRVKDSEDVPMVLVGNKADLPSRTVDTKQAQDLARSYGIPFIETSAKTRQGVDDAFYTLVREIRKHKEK
Experimental: Following compound pre-incubation, purified SOS protein (aa 564-1049) and GTP (Roche 10106399001) were added to the assay wells and incubated for an additional 30 min. […] The assay plates were then read on a PerkinElmer EnVision Multilabel Reader, using AlphaScreen® technology, and data were analyzed using a 4-parameter logistic model to calculate IC50 values.

[3] = test system: Phosphorylation of ERK1/2 in AsPC-1 cells; experiment: Phospho-ERK1/2 MSD Assay (AsPC-1 cells); format: cell-based; settings: Homo sapiens, read-out: p-ERK (AsPC-1 cells) IC50
In short: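 Read-out: MSD electrochemiluminescent detection of phosphorylated ERK1/2 in whole-cell lysates, fitted to a 4-parameter logistic curve for IC50. Prior to lysis, AsPC-1 cells (25,000 per well) received a 2 h compound dose-response at 37 °C.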

[4] = molecular target: His-tagged KRAS G12D protein (Homo sapiens, UniProt P01116, G12D); experiment: KRAS G12D TR-FRET Assay; format: binding
Chain of His-tagged KRAS G12D protein (P01116 1-188 isoform P01116-2 G12D): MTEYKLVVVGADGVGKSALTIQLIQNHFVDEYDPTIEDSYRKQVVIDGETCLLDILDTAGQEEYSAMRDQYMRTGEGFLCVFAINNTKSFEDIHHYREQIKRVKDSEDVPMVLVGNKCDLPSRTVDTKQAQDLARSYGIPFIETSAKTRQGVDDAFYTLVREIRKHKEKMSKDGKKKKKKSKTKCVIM

SMILES	IC50 ([1]; A-427, 2 h)	Avg 2 h Coupled Exchange IC50 [2]	IC50 ([3]; ASPC1, 2 h, 2 hours treatment)	IC50 [4]	IC50 [1]	IC50 ([3]; ASPC1, 2 hours treatment)
Oc1cc(-c2c(Cl)cc3c(N4C[C@H]5CC[C@@H](C4)N5)nc(OC[C@@]45CCCN4C[C@H](F)C5)nc3c2F)c2c(Cl)cccc2c1 [Example 86, 4-(4-((1R,5S)-3,8-diazabicyclo[3.2. 1]octan-3-yl)-6-chloro-8-fluoro-2-(((2R,7aS)-2-fluorotetrahydro-1H-pyrrolizin-7a(5H)-yl)methoxy)quinazolin-7-yl)-5-chloronaphthalen-2-ol]	54 nM	2 nM	149 nM	4 nM	–	–
CCc1c(F)ccc2cc(O)cc(-c3ccc4c(N5C[C@H]6CC[C@@H](C5)N6)nc(OC[C@@]56CCCN5C[C@H](F)C6)nc4c3F)c12 [Example 87, 4-(4-((1R,5S)-3,8-diazabicyclo[3.2. 1]octan-3-yl)-8-fluoro-2-(((2R,7aS)-2-fluorotetrahydro-1H-pyrrolizin-7a(5H)-yl)methoxy)quinazolin-7-yl)-5-ethyl-6-fluoronaphthalen-2-ol]	6 nM	10 nM	16 nM	7 nM	–	–
CCc1c(F)ccc2cc(O)cc(-c3c(F)cc4c(N5C[C@H]6CC[C@@H](C5)N6)nc(OC[C@@]56CCCN5C[C@H](F)C6)nc4c3F)c12 [Example 88, 4-(4-((1R,5S)-3,8-diazabicyclo[3.2. 1]octan-3-yl)-6,8-difluoro-2-(((2R,7aS)-2-fluorotetrahydro-1H-pyrrolizin-7a(5H)-yl)methoxy)quinazolin-7-yl)-5-ethyl-6-fluoronaphthalen-2-ol]	3 nM	4 nM	9 nM	4 nM	–	–
CCc1c(F)ccc2cc(O)cc(-c3c(F)cc4c(N5C[C@H]6CC[C@@H](C5)N6)nc(OC[C@@H]5C[C@@H](F)CN5C)nc4c3F)c12 [Example 89, 4-(4-((1R,5S)-3,8-diazabicyclo[3.2. 1]octan-3-yl)-6,8-difluoro-2-(((2S,4R)-4-fluoro-1-methylpyrrolidin-2-yl)methoxy)quinazolin-7-yl)-5-ethyl-6-fluoronaphthalen-2-ol]	80 nM	4 nM	137 nM	4 nM	–	–
CCc1c(F)ccc2cccc(-c3ccc4c(N5C[C@H]6CC[C@@H](C5)N6)nc(OC[C@@]56CCCN5C[C@H](F)C6)nc4c3F)c12 [Example 90, 4-((1R,5S)-3,8-diazabicyclo[3.2. 1]octan-3-yl)-7-(8-ethyl-7-fluoronaphthalen-1-yl)-8-fluoro-2-(((2R,7aS)-2-fluorotetrahydro-1H-pyrrolizin-7a(5H)-yl)methoxy) quinazoline]	454 nM	3 nM	790 nM	4 nM	–	–
CCc1c(F)ccc2cc(O)cc(-c3ccc4c(N5C[C@@H]6CC[C@H]5CN6)nc(OC[C@@]56CCCN5C[C@H](F)C6)nc4c3C)c12 [Example 92, 4-(4-((1S,4S)-2,5-diazabicyclo[2.2. 2]octan-2-yl)-2-(((2R,7aS)-2-fluorotetrahydro-1H-pyrrolizin-7a(5H)-yl)methoxy)-8-methylquinazolin-7-yl)-5-ethyl-6-fluoronaphthalen-2-ol]	880 nM	33 nM	829 nM	24 nM	–	–
CCc1c(F)ccc2cc(O)cc(-c3c(F)cc4c(N5C[C@@H]6CC[C@H]5CN6)nc(OC[C@@]56CCCN5C[C@H](F)C6)nc4c3F)c12 [Example 93, 4-(4-((1S,4S)-2,5-diazabicyclo[2.2. 2]octan-2-yl)-6,8-difluoro-2-(((2R,7aS)-2-fluorotetrahydro-1H-pyrrolizin-7a(5H)-yl)methoxy)quinazolin-7-yl)-5-ethyl-6-fluoronaphthalen-2-ol]	6 nM	6 nM	9 nM	5 nM	–	–
CCc1c(F)ccc2cc(O)cc(-c3c(F)cc4c(N5C[C@@H]6CC[C@H]5CN6)nc(OC[C@@H]5C[C@@H](F)CN5C)nc4c3F)c12 [Example 94, 4-(4-((1S,4S)-2,5-diazabicyclo[2.2. 2]octan-2-yl)-6,8-difluoro-2-(((2S,4R)-4-fluoro-1-methylpyrrolidin-2-yl)methoxy)quinazolin-7-yl)-5-ethyl-6-fluoronaphthalen-2-ol]	110 nM	4 nM	152 nM	5 nM	–	–
CCc1c(F)ccc2cc(O)cc(-c3ccc4c(N5C[C@H]6CC[C@@H](C5)N6)nc(OC[C@@]56CCCN5C[C@H](F)C6)nc4c3C)c12 [Example 95, 4-(4-((1R,5S)-3,8-diazabicyclo[3.2. 1]octan-3-yl)-2-(((2R,7aS)-2-fluorotetrahydro-1H-pyrrolizin-7a(5H)-yl)methoxy)-8-methylquinazolin-7-yl)-5-ethyl-6-fluoronaphthalen-2-ol]	199 nM	10 nM	230 nM	10 nM	–	–
Cc1c(-c2cc(O)cc3cccc(Cl)c23)ccc2c(N3C[C@@H]4CC[C@H]3CN4)nc(OC[C@@]34CCCN3C[C@H](F)C4)nc12 [Example 96, 4-(4-((1S,4S)-2,5-diazabicyclo[2.2. 2]octan-2-yl)-2-(((2R,7aS)-2-fluorotetrahydro-1H-pyrrolizin-7a(5H)-yl)methoxy)-8-methylquinazolin-7-yl)-5-chloronaphthalen-2-ol]	95 nM	5 nM	213 nM	7 nM	–	–
Cc1c(-c2cc(O)cc3ccc(F)c(F)c23)ccc2c(N3C[C@H]4CC[C@@H](C3)N4)nc(OC[C@@]34CCCN3C[C@H](F)C4)nc12 [Example 97, 4-(4-((1R,5S)-3,8-diazabicyclo[3.2. 1]octan-3-yl)-2-(((2R,7aS)-2-fluorotetrahydro-1H-pyrrolizin-7a(5H)-yl)methoxy)-8-methylquinazolin-7-yl)-5,6-difluoronaphthalen-2-ol]	69 nM	6 nM	178 nM	6 nM	–	–
Cc1c(-c2cc(O)cc3cccc(Cl)c23)ccc2c(N3[C@@H]4CC[C@H]3CNC4)nc(OC[C@@]34CCCN3C[C@H](F)C4)nc12 [Example 98, 4-(4-((1R,5S)-3,8-diazabicyclo[3.2. 1]octan-8-yl)-2-(((2R,7aS)-2-fluorotetrahydro-1H-pyrrolizin-7a(5H)-yl)methoxy)-8-methylquinazolin-7-yl)-5-chloronaphthalen-2-ol]	587 nM	13 nM	1050 nM	13 nM	–	–
C#Cc1cccc2cc(O)cc(-c3ccc4c(N5[C@@H]6CC[C@H]5CNC6)nc(OC[C@@]56CCCN5C[C@H](F)C6)nc4c3F)c12 [Example 99, 4-(4-((1R,5S)-3,8-Diazabicyclo[3.2.1]octan-8-yl)-8-fluoro-2-(((2R,7aS)-2-fluorotetrahydro-1H-pyrrolizin-7a(5H)-yl)methoxy)quinazolin-7-yl)-5-ethynylnaphthalen-2-ol]	5 nM	3 nM	19 nM	3 nM	–	–
C#Cc1cccc2cccc(-c3c(F)cc4c(N5[C@@H]6CC[C@H]5CNC6)nc(OC[C@@]56CCCN5C[C@H](F)C6)nc4c3F)c12 [Example 100, 4-((1R,5S)-3,8-Diazabicyclo[3.2.1]octan-8-yl)-7-(8-ethynylnaphthalen-1-yl)-6,8-difluoro-2-(((2R,7aS)-2-fluorotetrahydro-1H-pyrrolizin-7a(5H)-yl)methoxy)quinazoline]	945 nM	6 nM	663 nM	8 nM	–	–
Fc1cc2c(N3[C@@H]4CC[C@H]3CNC4)nc(OC[C@@]34CCCN3C[C@H](F)C4)nc2c(F)c1-c1cncc2cccc(Cl)c12 [Example 101, 4-((1R,5S)-3,8-Diazabicyclo[3.2.1]octan-8-yl)-7-(5-chloroisoquinolin-4-yl)-6,8-difluoro-2-(((2R,7aS)-2-fluorotetrahydro-1H-pyrrolizin-7a(5H)-yl)methoxy)quinazoline]	–	35 nM	–	70 nM	2920 nM	1710 nM
CCc1cccc2cc(O)cc(-c3c(F)cc4c(N5C[C@@H]6CC[C@H]5CN6)nc(OC[C@@]56CCCN5C[C@H](F)C6)nc4c3F)c12 [Example 109, 4-(4-((1S,4S)-2,5-Diazabicyclo[2.2.2]octan-2-yl)-6,8-difluoro-2-(((2R,7aS)-2-fluorotetrahydro-1H-pyrrolizin-7a(5H)-yl)methoxy)quinazolin-7-yl)-5-ethylnaphthalen-2-ol]	17 nM	3 nM	29 nM	4 nM	–	–
CCc1cccc2cc(O)cc(-c3ccc4c(N5C[C@@H]6CC[C@H]5CN6)nc(OC[C@@]56CCCN5C[C@H](F)C6)nc4c3F)c12 [Example 110, 4-(4-((1S,4S)-2,5-diazabicyclo[2.2.2]octan-2-yl)-8-fluoro-2-(((2R,7aS)-2-fluorotetrahydro-1H-pyrrolizin-7a(5H)-yl)methoxy)quinazolin-7-yl)-5-ethylnaphthalen-2-ol]	10 nM	3 nM	26 nM	4 nM	–	–
